Literature values, collected in patent publication US20060046998A1, “Method of treatment of gastroesophageal reflux disease and laryngopharyngeal reflux disease” (Fairfield Clinical Trials, LLC, priority 2004, published 2006).

Conditions: oral, when beginning a course of PPI therapy

Row | SMILES | time to obtain maximal symptomatic relief
1 | COc1ccc2nc([S@@+]([O-])Cc3ncc(C)c(OC)c3C)[nH]c2c1 [esomeprazole] | four
2 | Cc1c(OCC(F)(F)F)ccnc1C[S+]([O-])c1nc2ccccc2[nH]1 (centres unmarked) [lansoprazole] | five
